Patent US12264170B2, “Antimicrobial organosilanes” (TOPIKOS SCIENTIFIC, INC., priority 2019, dated 2025)
Converted amounts (≈) assume the structure as drawn.

Columns and labels:
P. aeruginosa ATCC 27853 = experiment: MIC microdilution assay; assay type: cell-based, Pseudomonas aeruginosa; conditions: CAMHB, 35±2° C. 18 to 20 hours, two values given
Experimental: (§1) Strain numbers starting with “ATCC” were acquired from the American Type Culture Collection (Manassas, VA), while strain numbers starting with “CDC” were acquired from the Centers for Disease Control and Prevention (Atlanta, GA). All strains were maintained as −80° C. frozen glycerol stocks. S. aureus and P. aeruginosa were grown overnight on Tryptic Soy Agar (TSA) plates at 35±2° C., ambient atmosphere, while S. pyogenes was grown overnight on TSA+5% defibrinated sheep blood at 35±2° C., 5% CO2. All fungal species (i.e. C. albicans, C. auris and C. herbarum) were grown on Sabouraud Dextrose Agar (SDA) plates. C. herbarum was grown at 25±2° C. for 5 to 7 days, while all other fungal strains were grown at 35±2° C. overnight.
(§2) Test articles Compound 2 (batch #2G13A0.368) and Compound 23 (batch #2G17A0.372) were received and stored at 4° C. The antibiotic Tobramycin and antifungal Amphotericin B were used as quality control (QC) compounds for the MIC assay. Stock solutions of 3.2 mg/mL Tobramycin (Sigma-Aldrich, cat #T1783-500MG) and 3.2 mg/mL Amphotericin B (CP Lab Chemicals, cat #TOK-A007-1G) were prepared in sterile ultrapure water.
(§3) For bacteria strains, a few colonies of each strain were collected with a sterile swab and used to make a McFarland 0.5 standard solution (approximately 1×10^8 CFU/mL) in sterile PBS. The McFarland was then diluted 1:180 in Cation Adjusted Muller-Hinton Broth (CAMHB) for S. aureus and P. aeruginosa, and in CAVHIIB+5% defibrinated sheep blood for S. pyogenes. 90 μL of this inoculum was combined with 10 μL of the 10× test article in a 96-well plate for a final concentration of 1×.
(§4) All bacterial-strain MIC 96-well plates were incubated at 35±2° C. for 18 to 20 hours, while all Candida MIC 96-well plates were incubated at 35±2° C. for 24 to 48 hours. C. herbarum MIC 96-well plates were incubated at 25±2° C. for 3 to 5 days, until growth was visible in the growth control wells. After incubation, the 96-well plates were examined visually and on a spectrophotometer at absorbance OD650. […]

[1] = system: Pseudomonas aeruginosa ATCC 27853; experiment: MIC microdilution assay (Example 32); assay type: cell-based; conditions: P. aeruginosa ATCC 27853 (quality control); CAMHB; 35±2° C. 18 to 20 hours; two values given
Experimental: (§5) Strain IDs starting with “ATCC” were acquired from the American Type Culture Collection (Manassas, VA), strain IDs starting with “Eurofins” were acquired from Eurofins (Herndon, VA), while strain IDs starting with “CDC” were acquired from the Centers for Disease Control and Prevention (Atlanta, GA). All strains were maintained as −80° C. frozen glycerol stocks. S. aureus and P. aeruginosa were grown overnight on Tryptic Soy Agar (TSA) plates at 35±2° C., ambient atmosphere, while S. pyogenes was grown overnight on TSA+5% defibrinated sheep blood at 35±2° C., 5% CO2. C. jejuni was grown for 48 hours on TSA+5% defibrinated sheep blood at 35±2° C., in a microaerophilic environment generated by CampyGen sachet. All fungal species (i.e. C. albicans and C. auris) were grown overnight on Sabouraud Dextrose Agar (SDA) plates at 35±2° C., ambient atmosphere.
as §2, with “Test article” for “Test articles”, “Compound 1” for “Compound 2”, “(batch #7G30A9.203) was” for “(batch #2G13A0.368) and Compound 23 (batch #2G17A0.372) were received and”
as §3, with “aeruginosa. S. pyogenes McFarland was diluted 1:180” for “aeruginosa, and”, “CAMHB+5%” for “CAVHIIB+5%”, “blood, while C. jejuni McFarland was diluted 1:180 in CAMHB+5% laked horse blood.” for “blood for S. pyogenes.”
(§6) Except for C. jejuni, all bacterial-strain MIC 96-well plates were incubated at 35±2° C. for 18 to 20 hours, ambient atmosphere. C. jejuni was incubated at 35±2° C. for 48 hours, under microaerophilic condition. All Candida MIC 96-well plates were incubated at 35±2° C. for 24 to 48 hours, ambient atmosphere, until growth in control wells were observed. After incubation, the 96-well plates were examined visually and on a spectrophotometer at absorbance OD650. MIC is defined as the lowest concentration of a compound in which no visible growth is observed.

[2] = system: Pseudomonas aeruginosa Eurofins 1674623; experiment: MIC microdilution assay (Example 32); assay type: cell-based; conditions: P. aeruginosa Eurofins 1674623; CAMHB; 35±2° C. 18 to 20 hours; two values given
Experimental: as §5
as §2, with “Test article” for “Test articles”, “Compound 1” for “Compound 2”, “(batch #7G30A9.203) was” for “(batch #2G13A0.368) and Compound 23 (batch #2G17A0.372) were received and”
as §3, with “aeruginosa. S. pyogenes McFarland was diluted 1:180” for “aeruginosa, and”, “CAMHB+5%” for “CAVHIIB+5%”, “blood, while C. jejuni McFarland was diluted 1:180 in CAMHB+5% laked horse blood.” for “blood for S. pyogenes.”
as §6

[3] = system: Acinetobacter baumannii Eurofins 1674627; experiment: MIC microdilution assay (Example 32); assay type: cell-based; conditions: A. baumannii Eurofins 1674627; 35±2° C. 18 to 20 hours; two values given
Experimental: as §5
as §2, with “Test article” for “Test articles”, “Compound 1” for “Compound 2”, “(batch #7G30A9.203) was” for “(batch #2G13A0.368) and Compound 23 (batch #2G17A0.372) were received and”
as §3, with “aeruginosa. S. pyogenes McFarland was diluted 1:180” for “aeruginosa, and”, “CAMHB+5%” for “CAVHIIB+5%”, “blood, while C. jejuni McFarland was diluted 1:180 in CAMHB+5% laked horse blood.” for “blood for S. pyogenes.”
as §6

[4] = system: Campylobacter jejuni CDC 0413; experiment: MIC microdilution assay (Example 32); assay type: cell-based; conditions: C. jejuni CDC 0413; CAMHB+5% laked horse blood; 35±2° C. 48 hours, microaerophilic; two values given
Experimental: as §5
as §2, with “Test article” for “Test articles”, “Compound 1” for “Compound 2”, “(batch #7G30A9.203) was” for “(batch #2G13A0.368) and Compound 23 (batch #2G17A0.372) were received and”
as §3, with “aeruginosa. S. pyogenes McFarland was diluted 1:180” for “aeruginosa, and”, “CAMHB+5%” for “CAVHIIB+5%”, “blood, while C. jejuni McFarland was diluted 1:180 in CAMHB+5% laked horse blood.” for “blood for S. pyogenes.”
as §6

[5] = system: Pseudomonas aeruginosa CDC 0248; experiment: MIC microdilution assay (Example 32); assay type: cell-based; conditions: P. aeruginosa CDC 0248; CAMHB; 35±2° C. 18 to 20 hours; two values given
Experimental: as §5
as §2, with “Test article” for “Test articles”, “Compound 1” for “Compound 2”, “(batch #7G30A9.203) was” for “(batch #2G13A0.368) and Compound 23 (batch #2G17A0.372) were received and”
as §3, with “aeruginosa. S. pyogenes McFarland was diluted 1:180” for “aeruginosa, and”, “CAMHB+5%” for “CAVHIIB+5%”, “blood, while C. jejuni McFarland was diluted 1:180 in CAMHB+5% laked horse blood.” for “blood for S. pyogenes.”
as §6

[6] = system: Streptococcus pyogenes Eurofins 2065755; experiment: MIC microdilution assay (Example 32); assay type: cell-based; conditions: S. pyogenes Eurofins 2065755; CAMHB+5% defibrinated sheep blood; 35±2° C. 18 to 20 hours; two values given
Experimental: as §5
as §2, with “Test article” for “Test articles”, “Compound 1” for “Compound 2”, “(batch #7G30A9.203) was” for “(batch #2G13A0.368) and Compound 23 (batch #2G17A0.372) were received and”
as §3, with “aeruginosa. S. pyogenes McFarland was diluted 1:180” for “aeruginosa, and”, “CAMHB+5%” for “CAVHIIB+5%”, “blood, while C. jejuni McFarland was diluted 1:180 in CAMHB+5% laked horse blood.” for “blood for S. pyogenes.”
as §6

[7] = system: Staphylococcus aureus ATCC 33591; experiment: MIC microdilution assay; assay type: cell-based; conditions: S. aureus ATCC 33591; CAMHB; 35±2° C. 18 to 20 hours; two values given
Experimental: as §1, §2, §3, §4

[8] = system: Candida albicans ATCC 90028; experiment: MIC microdilution assay; assay type: cell-based; conditions: C. albicans ATCC 90028; RPMI media; 35±2° C. 24 to 48 hours; two values given
Experimental: as §1, §2, §3
(§7) For the yeasts C. albicans and C. auris, a McFarland 0.5 standard solution in sterile PBS was similarly prepared (approximately 1×10^6 CFU/mL) and was subsequently diluted 1:180 in RPMI 1640 media buffered with 0.165 M MOPS at pH 7.0 (herein referred to as “RPMI media”). 90 μL of the Candida inoculum was combined with 10 μL of the 10× test article in a 96-well plate for a final concentration of 1×.
(§8) All bacterial-strain MIC 96-well plates were incubated at 35±2° C. for 18 to 20 hours, while all Candida MIC 96-well plates were incubated at 35±2° C. for 24 to 48 hours. C. herbarum MIC 96-well plates were incubated at 25±2° C. for 3 to 5 days, until growth was visible in the growth control wells. After incubation, the 96-well plates were examined visually and on a spectrophotometer at absorbance OD650. MIC is defined as the lowest concentration of a compound in which no visible growth is observed.

Candida auris CDC 0381 = experiment: MIC microdilution assay; assay type: cell-based; conditions: C. auris CDC 0381; RPMI media; 35±2° C. 24 to 48 hours; two values given
Experimental: as §1, §2, §3, §7, §8

[9] = system: Cladosporium herbarum ATCC MYA-4682; experiment: MIC microdilution assay; assay type: cell-based; conditions: C. herbarum ATCC MYA-4682; RPMI media; 25±2° C. 3 to 5 days; two values given
Experimental: as §1
Test articles Compound 2 (batch #2G13A0.368) and Compound 23 (batch #2G17A0.372) were received and stored at 4° C. The antibiotic Tobramycin and antifungal Amphotericin B were used as quality control (QC) compounds for the MIC assay. […]
All bacterial-strain MIC 96-well plates were incubated at 35±2° C. for 18 to 20 hours, while all Candida MIC 96-well plates were incubated at 35±2° C. for 24 to 48 hours. […] After incubation, the 96-well plates were examined visually and on a spectrophotometer at absorbance OD650. […]

Candida auris CDC 0385 = experiment: MIC microdilution assay (Example 32); assay type: cell-based; conditions: C. auris CDC 0385; RPMI media; 35±2° C. 24 to 48 hours; two values given
Experimental: as §5
as §2, with “Test article” for “Test articles”, “Compound 1” for “Compound 2”, “(batch #7G30A9.203) was” for “(batch #2G13A0.368) and Compound 23 (batch #2G17A0.372) were received and”
as §3, with “aeruginosa. S. pyogenes McFarland was diluted 1:180” for “aeruginosa, and”, “CAMHB+5%” for “CAVHIIB+5%”, “blood, while C. jejuni McFarland was diluted 1:180 in CAMHB+5% laked horse blood.” for “blood for S. pyogenes.”
as §7, §6

[10] = system: Candida albicans ATCC 90028; experiment: MIC microdilution assay (Example 32); assay type: cell-based; conditions: C. albicans ATCC 90028 (quality control); RPMI media; 35±2° C. 24 to 48 hours; two values given
Experimental: as §5
as §2, with “Test article” for “Test articles”, “Compound 1” for “Compound 2”, “(batch #7G30A9.203) was” for “(batch #2G13A0.368) and Compound 23 (batch #2G17A0.372) were received and”
as §3, with “aeruginosa. S. pyogenes McFarland was diluted 1:180” for “aeruginosa, and”, “CAMHB+5%” for “CAVHIIB+5%”, “blood, while C. jejuni McFarland was diluted 1:180 in CAMHB+5% laked horse blood.” for “blood for S. pyogenes.”
as §7, §6

S. pyogenes ATCC 51339 = experiment: MIC microdilution assay; assay type: cell-based, Steptococcus pyogenes; conditions: S. pyogenes ATCC 51339; broth +5% defibrinated sheep blood; 35±2° C. 18 to 20 hours; two values given
Experimental: as §1, §2, §3, §4

Structure (SMILES): C[C@@H]1[C@H](O)[C@@H](C)/C=C/C=C/C=C/C=C/C=C/C=C/C=C/[C@H](O[C@@H]2O[C@H](C)[C@@H](O)[C@H](N)[C@@H]2O)C[C@@H]2O[C@](O)(C[C@@H](O)C[C@@H](O)[C@H](O)CC[C@@H](O)C[C@@H](O)CC(=O)O[C@H]1C)C[C@H](O)[C@H]2C(=O)O [Amphotericin B]
- MIC (P. aeruginosa ATCC 27853): >32 µg/mL
- MIC [1]: >32 µg/mL
- MIC [2]: >32 µg/mL
- MIC [3]: >32 µg/mL
- MIC [4]: >32 µg/mL
- MIC [5]: >32 µg/mL
- MIC [6]: >32 µg/mL
- MIC [7]: >32 µg/mL
- MIC [8]: 2 µg/mL (≈ 2.16 µM)
- MIC (Candida auris CDC 0381): 1 µg/mL (≈ 1.08 µM)
- MIC [9]: ≤0.03 µg/mL
- MIC (Candida auris CDC 0385): 4 µg/mL (≈ 4.33 µM)
- MIC [10]: 1 µg/mL (≈ 1.08 µM)
- MIC (S. pyogenes ATCC 51339): >32 µg/mL
